In brackets after ≈: the same amount, converted by molar mass.
Assays:
[1] = AUC (0 to 24 hrs) in mouse at 10 mg/kg, po; type: ADME, organism-based; design: dose 10 mg/kg, time < 24 hr, route oral; settings: in vivo
[2] = Metabolic stability of compound in rat liver microsomes assessed as compound remaining after 10 mins; type: ADME, Microsome; settings: read-out: Stability
[3] = Metabolic stability of compound in human liver microsomes assessed as compound remaining; type: ADME, Microsome
[4] = Metabolic stability of compound in mouse liver microsomes assessed as compound remaining; type: ADME, Microsome
TGF-beta receptor type-1 [5] = target: T1, TGF-beta receptor type-1 (Homo sapiens, UniProt P36897); test: Inhibition of TGFBR1 in TGFbeta-stimulated human NHLF cells assessed as reduction in SMAD2 nuclear translocation
T1 sequence (P36897 whole entry): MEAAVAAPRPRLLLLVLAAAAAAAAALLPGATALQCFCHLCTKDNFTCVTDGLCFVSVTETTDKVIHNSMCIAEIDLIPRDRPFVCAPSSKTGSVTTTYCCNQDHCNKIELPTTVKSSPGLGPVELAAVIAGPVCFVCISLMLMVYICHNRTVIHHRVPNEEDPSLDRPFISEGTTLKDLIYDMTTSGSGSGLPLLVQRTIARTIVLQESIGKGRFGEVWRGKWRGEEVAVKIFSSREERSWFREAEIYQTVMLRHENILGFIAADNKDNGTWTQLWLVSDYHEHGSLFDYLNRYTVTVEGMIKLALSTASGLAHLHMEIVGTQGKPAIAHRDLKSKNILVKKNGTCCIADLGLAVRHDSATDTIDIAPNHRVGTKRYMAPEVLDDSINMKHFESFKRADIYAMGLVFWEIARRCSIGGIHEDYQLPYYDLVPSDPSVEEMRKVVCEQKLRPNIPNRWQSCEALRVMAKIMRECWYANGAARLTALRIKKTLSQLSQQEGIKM

TGF-beta receptor type-1 [6] = target: TGF-beta receptor type-1 (Homo sapiens, UniProt P36897, T204D); test: Inhibition of His-tagged TGFBR1 kinase domain T204D mutant (unknown origin) incubated for 1 hr by HTRF analysis
Chain of TGF-beta receptor type-1 (Homo sapiens, UniProt P36897, T204D) (P36897 34-503 T204D limits assumed): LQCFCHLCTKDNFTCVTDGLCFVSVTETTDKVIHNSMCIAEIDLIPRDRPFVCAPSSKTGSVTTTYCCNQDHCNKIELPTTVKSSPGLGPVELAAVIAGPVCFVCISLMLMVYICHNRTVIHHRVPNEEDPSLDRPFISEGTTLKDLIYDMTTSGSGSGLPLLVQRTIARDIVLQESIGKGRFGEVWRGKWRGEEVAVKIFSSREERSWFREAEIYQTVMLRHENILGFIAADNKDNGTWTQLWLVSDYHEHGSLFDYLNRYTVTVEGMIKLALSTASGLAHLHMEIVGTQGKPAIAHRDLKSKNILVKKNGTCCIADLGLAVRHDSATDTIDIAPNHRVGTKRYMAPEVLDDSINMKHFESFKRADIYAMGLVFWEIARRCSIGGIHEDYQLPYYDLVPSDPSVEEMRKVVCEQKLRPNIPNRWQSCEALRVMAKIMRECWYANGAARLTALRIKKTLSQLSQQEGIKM

TGF-beta receptor type-2 = TGF-beta receptor type-2 (Homo sapiens, UniProt P37173); test: Inhibition of wild type His-tagged TGFBR2 kinase domain (unknown origin) incubated for 1 hr by HTRF analysis
Chain of TGF-beta receptor type-2 (P37173 whole entry, the tested form may be a part): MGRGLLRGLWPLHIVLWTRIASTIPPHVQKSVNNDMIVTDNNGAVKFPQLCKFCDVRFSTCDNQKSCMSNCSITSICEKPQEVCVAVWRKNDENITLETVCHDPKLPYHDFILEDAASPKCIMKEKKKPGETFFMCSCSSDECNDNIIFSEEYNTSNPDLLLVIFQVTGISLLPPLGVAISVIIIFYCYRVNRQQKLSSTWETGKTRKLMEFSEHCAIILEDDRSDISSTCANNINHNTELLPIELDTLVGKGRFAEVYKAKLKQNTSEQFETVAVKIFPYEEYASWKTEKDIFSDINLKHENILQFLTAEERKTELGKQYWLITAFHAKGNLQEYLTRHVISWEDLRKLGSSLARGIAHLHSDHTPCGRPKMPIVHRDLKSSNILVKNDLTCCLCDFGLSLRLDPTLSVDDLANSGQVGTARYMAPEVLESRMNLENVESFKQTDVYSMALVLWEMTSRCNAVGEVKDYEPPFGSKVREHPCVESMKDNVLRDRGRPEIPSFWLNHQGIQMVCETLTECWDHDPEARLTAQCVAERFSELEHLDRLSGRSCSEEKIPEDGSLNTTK

[7] = Aqueous solubility of the compound at pH 6.5; type: physicochemical; settings: buffer
[8] = Solubility of compound in crystalline form at pH 6.5; type: physicochemical

Row | AUC(0-t) at 24 h [1] | remaining at 10 min [2] | Stability [3] | Stability [4] | IC50 (TGF-beta receptor type-1 [5]) | IC50 (TGF-beta receptor type-1 [6]) | IC50 (TGF-beta receptor type-2) | solubility [7] | solubility [8] | SMILES
1 | 2 µM·h | 74% | 97% | 65% |  |  |  |  |  | Cc1cccc(-c2ncn(CC(F)F)c2-c2ccc3ncc(C(N)=O)n3c2)n1
2 |  | 31% | 78% | 54% | 0.09 µM | 0.001 to 0.01 µM |  |  |  | Cc1cccc(-c2ncn(CC(F)F)c2-c2ccc3nccn3c2)n1
3 |  | 96% | 75% | 89% |  |  | > 15 µM | Insoluble |  | N#Cc1cnc2ccc(-c3c(-c4ccc(F)cc4)ncn3CC(F)F)nn12
4 |  | 100% | 93% | 86% |  |  | > 15 µM |  | 0.138 mg/mL (≈ 396 µM) | N#Cc1cnc2ccc(-c3c(-c4ccc(F)cc4)ncn3CCO)nn12
5 | 28 µM·h | 100% | 100% | 100% |  |  |  |  |  | NC(=O)c1cnc2ccc(-c3c(-c4ccc(F)cc4)ncn3CC(F)F)nn12

Reference: ChEMBL document CHEMBL4334552, “Discovery of BMS-986260, a Potent, Selective, and Orally Bioavailable TGFβR1 Inhibitor as an Immuno-oncology Agent” (ACS Med Chem Lett, 2020)
